Test results as given in patent US20190134153A1, “IMMUNOMODULATORY EFFECT OF INHALED KINASE INHIBITOR PEPTIDES IN LUNG” (MOERAE MATRIX, INC., priority 2017, published 2019).
Where a SMILES comes first, the peptide text is derived from it.

Tests used:
[1] = test system: Ca2+/calmodulin-dependent protein kinase II (CaMKII); conditions: cited from earlier work
PKA = conditions: 1 μM; cited from earlier work
PKC = conditions: 1 μM; cited from earlier work
CaMKIV = CaMKIV (Homo sapiens, UniProt Q16566); conditions: 1 μM; cited from earlier work
Chain of CaMKIV (Q16566 whole entry, species assumed): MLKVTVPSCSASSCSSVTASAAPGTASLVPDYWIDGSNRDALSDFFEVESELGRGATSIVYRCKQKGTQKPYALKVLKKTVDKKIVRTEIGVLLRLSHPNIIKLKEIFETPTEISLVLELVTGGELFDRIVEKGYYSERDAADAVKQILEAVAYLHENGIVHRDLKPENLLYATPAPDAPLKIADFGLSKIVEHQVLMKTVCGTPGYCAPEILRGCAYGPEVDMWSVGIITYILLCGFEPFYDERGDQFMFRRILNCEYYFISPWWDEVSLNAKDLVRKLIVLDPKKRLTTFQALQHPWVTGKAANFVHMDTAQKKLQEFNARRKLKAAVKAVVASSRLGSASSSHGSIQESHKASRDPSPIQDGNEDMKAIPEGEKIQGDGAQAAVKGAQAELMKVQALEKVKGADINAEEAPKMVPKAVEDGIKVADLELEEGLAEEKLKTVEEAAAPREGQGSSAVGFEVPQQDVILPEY

[2] = LPS challenge study in healthy smokers: safety and tolerability (adverse events)
Procedure: Period/sequence effects were analyzed to determine potential impact of treatment order.
First multi-day dosing in humans employed a single low dose of 2.25 mg, extrapolated from animal studies (37.5 μg/kg, based on 60 kg human).
The primary study endpoints were safety and tolerability following first repeat administration and induced sputum inflammatory biomarkers interleukin-6 (IL-6), interleukin-1β (IL-1β), interleukin-8 (IL-8) and tumor necrosis factor alpha (TNFα) following inhaled LPS (30 μg) challenge, day 5.

[3] = inhaled, even at high doses
[4] = following repeat dosing
Rat bowel anastomosis = conditions: vs placebo; cited from earlier work
in vitro = conditions: cells (cell type not stated)

autocamtide-2 related inhibitory peptide [AIP]
CaMKII activity ([1]; 1 μM): inhibited completely
IC50 ([1]; CaMKII): 100 nM
PKA activity (PKA): not affected
PKC activity (PKC): not affected
CaMKIV activity (CaMKIV): not affected

CC(C)C[C@H](NC(=O)[C@H](C)NC(=O)[C@H](CCCCN)NC(=O)[C@H](C)NC(=O)[C@H](CCCNC(=N)N)NC(=O)[C@H](C)NC(=O)[C@H](CCC(N)=O)NC(=O)[C@H](CCCNC(=N)N)NC(=O)[C@H](C)NC(=O)[C@H](C)NC(=O)[C@H](C)NC(=O)[C@H](CCCNC(=N)N)NC(=O)[C@H](C)NC(=O)[C@@H](N)Cc1ccc(O)cc1)C(=O)N[C@@H](C)C(=O)N[C@@H](CCCNC(=N)N)C(=O)N[C@@H](CCC(N)=O)C(=O)N[C@@H](CC(C)C)C(=O)NCC(=O)N[C@H](C(=O)N[C@@H](C)C(=O)N[C@@H](C)C(=O)O)C(C)C [MMI-0100] (H-YARAAARQARAKALARQLGVAA-OH)
Any AE leading to treatment D/C, Patients % ([2]; N = 22): (0%)
Any AE leading to treatment D/C, Patients N ([2]; N = 22): 0
Any TEAE, Patients % ([2]; N = 22): (40.9%)
Any TEAE, Patients N ([2]; N = 22): 9
Deaths, Patients % ([2]; N = 22): (0%)
Deaths, Patients N ([2]; N = 22): 0
Mild TEAE, Patients % ([2]; N = 22): (27.3%)
Mild TEAE, Patients N ([2]; N = 22): 6
Moderate TEAE, Patients % ([2]; N = 22): (18.2%)
Moderate TEAE, Patients N ([2]; N = 22): 4
Severe or life threatening TEAE, Patients % ([2]; N = 22): (0%)
Severe or life threatening TEAE, Patients N ([2]; N = 22): 0
Any serious treatment emergent adverse event, % of subjects ([2]; Safety Population N = 22): (0.5%)
Any serious treatment emergent adverse event, subjects ([2]; Safety Population N = 22): 0
Concussion (serious TEAE), % of subjects ([2]; Safety Population N = 22): (0%)
Concussion (serious TEAE), subjects ([2]; Safety Population N = 22): 0
Injury, poisoning and procedural complications (serious TEAE), % of subjects ([2]; Safety Population N = 22): (0%)
Injury, poisoning and procedural complications (serious TEAE), subjects ([2]; Safety Population N = 22): 0
Joint dislocation (serious TEAE), % of subjects ([2]; Safety Population N = 22): (0%)
Joint dislocation (serious TEAE), subjects ([2]; Safety Population N = 22): 0
Number of serious treatment emergent adverse events ([2]; Safety Population N = 22): 0
safety and tolerability ([2]; first repeat administration, 2.25 mg inhaled, 5 days): safe and well-tolerated
MMI-0100 plasma concentrations [3]: little to no detectable
effect on lung function (FEV1) [4]: no deleterious effect
healing (integrity of anastomosis) (Rat bowel anastomosis): healing (integrity of anastomosis) unaffected
half-life (in vitro): ~77 h
